Data: patent US20120264803A1, “METHOD FOR PREDICTING THERAPEUTIC EFFECTS OF CHEMOTHERAPY ON HEPATOCELLULAR CARCINOMA PATIENTS” (priority 2009, published 2012)

How the values were obtained:
[1] = tested on: hepatocellular carcinoma patients treated with TACE; test: Comparative clinical study of TSU-68 administration vs non-administration after TACE (progression-free survival); assay type: in vivo, human
Method: A comparative clinical study was conducted for the TSU-68 administration group and the TSU-68 non-administration group consisting of cases diagnosed as hepatocellular carcinoma that were impossible to treat with hepatectomy and PAT and had been treated with TACE. The antitumor agent used herein for TACE was epirubicin.
The subject cases were randomly assigned to the TSU-68 administration group and the TSU-68 non-administration group. TSU-68 administration was initiated for cases assigned to the TSU-68 administration group within 2 weeks after TACE. TSU-68 was administered orally at a dose of 200 mg per administration twice daily after breakfast and dinner on consecutive days. No further cancer treatment was given to the TSU-68 non-administration group after TACE and thus only follow-up observation was carried out.
Progression-free survival was defined as survival within the period from the day of TACE designated as the initial date of reckoning to any of dates on which the following events was observed, whichever came first.
1. Date on which the presence of progressive disease (hereinafter referred to as “PD”) was confirmed as a result of assessment of best overall response (date of testing). 2. Date on which a test subject died for any reason (date of death). 3. Date on which a test subject was assessed to have experienced clinically obvious deterioration of the disease or to be in need of post-TACE treatment even without confirmation of PD upon assessment of best overall response (date of assessment).
Best overall response was evaluated by measuring tumor diameters by CT and assaying tumor markers (AFP, PIVKA-II, and AFP-L3 fractions) according to New Guideline to Evaluate the Response to Treatment in Solid Tumor (hereinafter referred to as “RECIST”) (J Natl Cancer Inst 92: 205, 2000).
The expression levels of PDGF-BB and IL-8 in blood obtained before TSU-68 administration after TACE were determined using ELISA Kits as described below.
Cut-off points were determined by the statistical analysis technique described below based on the quantified PDGF-BB and IL-8 levels.
(1) The cut-off point for dividing patients into the PDGF-BB hyperexpression group and the PDGF-BB underexpression group was calculated so that the difference between the 6-month-progression-free survival rate for the TSU-68 administration group and the 6-month-progression-free survival rate for the TSU-68 non-administration group was 20% or more for patients in the PDGF-BB hyperexpression group. The cut-off point was 1480 to 2030 pg/ml. (2) The cut-off point for dividing patients into the PDGF-BB hyperexpression group and the PDGF-BB underexpression group was calculated so that the hazard ratio of the TSU-68 administration group to the TSU-68 non-administration group was 0.6 or less for patients in the PDGF-BB hyperexpression group. The cut-off point was 1740 to 1960 pg/ml. (3) The cut-off point for dividing patients into the IL-8 hyperexpression group and the IL-8 underexpression group was calculated so that the difference between the 6-month-progression-free survival rate for the TSU-68 administration group and the 6-month-progression-free survival rate for the TSU-68 non-administration group was 20% or more for cases in the IL-8 hyperexpression group. The cut-off point was 2.1 to 6.6 pg/ml. (4) The cut-off point for dividing patients into the IL-8 hyperexpression group and the IL-8 underexpression group was calculated so that the hazard ratio of the TSU-68 administration group to the TSU-68 non-administration group was 0.6 or less for cases in the IL-8 hyperexpression group. The cut-off point was 2.1 to 10.5 pg/ml.
The PDGF-BB hyperexpression group, the PDGF-BB underexpression group, the IL-8 hyperexpression group, and the IL-8 underexpression group were subjected to survival time analysis of the TSU-68 administration group and the TSU-68 non-administration group with the use of the cut-off points calculated in Example 1.

[2] = tested on: human cancer cell lines subcutaneously implanted (lung cancer, colon cancer, ovarian cancer); details: oral administration of TSU-68 alone, Non-Patent Literature 3; cited from earlier work
[3] = IL-8 hyperexpression group, cut-off 2.1 pg/ml, vs non-administration
[4] = IL-8 hyperexpression group, cut-off 6.6 pg/ml, vs non-administration
[5] = IL-8 hyperexpression group, cut-off 10.5 pg/ml, vs non-administration
[6] = IL-8 underexpression group, cut-off 6.6 pg/ml, vs non-administration
[7] = IL-8 underexpression group, cut-off 10.5 pg/ml, vs non-administration
[8] = PDGF-BB hyperexpression group, cut-off 1480 pg/ml, vs non-administration
[9] = PDGF-BB hyperexpression group, cut-off 1740 pg/ml, vs non-administration
[10] = PDGF-BB hyperexpression group, cut-off 1960 pg/ml, vs non-administration
[11] = PDGF-BB hyperexpression group, cut-off 2030 pg/ml, vs non-administration
[12] = PDGF-BB underexpression group, cut-off 1480 pg/ml, vs non-administration
[13] = PDGF-BB underexpression group, cut-off 1740 pg/ml, vs non-administration
[14] = PDGF-BB underexpression group, cut-off 1960 pg/ml, vs non-administration
[15] = PDGF-BB underexpression group, cut-off 2030 pg/ml, vs non-administration
[16] = patients having high PDGF-BB or IL-8 blood levels (summary over cut-off points), vs non-administration
[17] = stratified using reported VCAM cut-off point 2370 pg/ml (data not shown), vs non-administration

## Cc1[nH]c(/C=C2\C(=O)Nc3ccccc32)c(C)c1CCC(=O)O [TSU-68, (Z)-5-[(1,2-dihydro-2-oxo-3H-indol-3-ylidene)methyl]2,4-dimethyl-1H-pyrro 1-3-propanoic acid]
[1]; IL-8 hyperexpression group, cut-off 2.1 pg/ml
  6-month-progression-free survival rates: 48%
[1]; [3]
  Difference between 6-month-progression-free survival rate: 23%
  Hazard ratio: 0.51
[1]; IL-8 hyperexpression group, cut-off 6.6 pg/ml
  6-month-progression-free survival rate: 50%
[1]; [4]
  Difference between 6-month-progression-free survival rates: 20%
  Hazard ratio: 0.51
[1]; IL-8 hyperexpression group, cut-off 10.5 pg/ml
  6-month-progression-free survival rate: 56%
[1]; [5]
  Difference between 6-month-progression-free survival rates: 27%
  Hazard ratio: 0.51
[1]; IL-8 underexpression group, cut-off 2.1 pg/ml
  6-month-progression-free survival rates: 0%
[1]; IL-8 underexpression group, cut-off 2.1 pg/ml, vs non-administration
  Difference between 6-month-progression-free survival rate: −57%
[1]; IL-8 underexpression group, cut-off 6.6 pg/ml
  6-month-progression-free survival rate: 39%
[1]; [6]
  Difference between 6-month-progression-free survival rates: 9%
  Hazard ratio: 0.92
[1]; IL-8 underexpression group, cut-off 10.5 pg/ml
  6-month-progression-free survival rate: 41%
[1]; [7]
  Difference between 6-month-progression-free survival rates: 11%
  Hazard ratio: 0.79
[1]; PDGF-BB hyperexpression group, cut-off 1480 pg/ml
  6-month-progression-free survival rate: 52%
[1]; [8]
  Difference between 6-month-progression-free survival rates: 21%
  Hazard ratio: 0.64
[1]; PDGF-BB hyperexpression group, cut-off 1740 pg/ml
  6-month-progression-free survival rate: 52%
[1]; [9]
  Difference between 6-month-progression-free survival rates: 25%
  Hazard ratio: 0.59
[1]; PDGF-BB hyperexpression group, cut-off 1960 pg/ml
  6-month-progression-free survival rate: 52%
[1]; [10]
  Difference between 6-month-progression-free survival rates: 25%
  Hazard ratio: 0.55
[1]; PDGF-BB hyperexpression group, cut-off 2030 pg/ml
  6-month-progression-free survival rate: 52%
[1]; [11]
  Difference between 6-month-progression-free survival rates: 24%
  Hazard ratio: 0.62
[1]; PDGF-BB underexpression group, cut-off 1480 pg/ml
  6-month-progression-free survival rate: 25%
[1]; [12]
  Difference between 6-month-progression-free survival rates: 2%
  Hazard ratio: 0.73
[1]; PDGF-BB underexpression group, cut-off 1740 pg/ml
  6-month-progression-free survival rate: 40%
[1]; [13]
  Difference between 6-month-progression-free survival rates: 2%
  Hazard ratio: 0.85
[1]; PDGF-BB underexpression group, cut-off 1960 pg/ml
  6-month-progression-free survival rate: 40%
[1]; [14]
  Difference between 6-month-progression-free survival rates: 7%
  Hazard ratio: 0.84
[1]; PDGF-BB underexpression group, cut-off 2030 pg/ml
  6-month-progression-free survival rate: 42%
[1]; [15]
  Difference between 6-month-progression-free survival rates: 10%
  Hazard ratio: 0.75
[1]; all cases, TSU-68 200 mg orally twice daily after TACE
  6-month-progression-free survival rate: 47%
[1]; all cases, TSU-68 administration to non-administration group
  Hazard ratio: 0.69
[1]; all cases, TSU-68 administration vs non-administration group
  Difference between 6-month-progression-free survival rates: 18%
[1]; [16]
  Difference between 6-month-progression-free survival rates: 22% to 27
  Hazard ratio: 0.51 to 0.68
[1]; [17]
  Difference between 6-month-progression-free survival rates: < 20%
  Hazard ratio: > 0.6
[2]
  antitumor effects (tumor growth inhibition): effective for inhibiting tumor growth
